In publication PMC5218480 (PLoS ONE, 2017):

System: MV-4-11 cells
Test: Gene expression microarray analysis (Affymetrix PrimeView) and GSEA
Format: cell-based, human
Design: RFU PODN (11730768_x_at) / Fold change /veh PODN (11730768_x_at) / RFU LINC00158 (11744669_a_at) / Fold change /veh LINC00158 (11744669_a_at) / RFU DUSP10 (11751237_a_at) / Fold change /veh DUSP10 (11751237_a_at) / RFU ID3 (11757404_x_at) / Fold change /veh ID3 (11757404_x_at) / RFU PLEKHG5 (11737974_s_at) / Fold change /veh PLEKHG5 (11737974_s_at) / RFU LRRC4B (11730491_at) / Fold change /veh LRRC4B (11730491_at) / RFU GIMAP4 (11747438_a_at) / Fold change /veh GIMAP4 (11747438_a_at) / RFU KRT8 (11758183_x_at) / Fold change /veh KRT8 (11758183_x_at) / RFU CNN1 (11734310_a_at) / Fold change /veh CNN1 (11734310_a_at) / RFU VPS37D (11726825_at) / Fold change /veh VPS37D (11726825_at) / RFU C10orf10 (11716522_x_at) / Fold change /veh C10orf10 (11716522_x_at) / RFU KIR2DL2 /// KIR2DL4 /// KIR2DL5A /// KIR2DL5B /// KIR2DS1 /// KIR2DS2 /// KIR2DS3 /// KIR2DS4 /// KIR3DL3 /// KIR3DL3 /// KIR3DS1 (11738374_at) / Fold change /veh KIR2DL2 /// KIR2DL4 /// KIR2DL5A /// KIR2DL5B /// KIR2DS1 /// KIR2DS2 /// KIR2DS3 /// KIR2DS4 /// KIR3DL3 /// KIR3DL3 /// KIR3DS1 (11738374_at) / RFU C1QL1 (11718748_at) / Fold change /veh C1QL1 (11718748_at) / RFU TMPRSS4 (11747572_a_at) / Fold change /veh TMPRSS4 (11747572_a_at) / RFU HAMP (11756126_x_at) / Fold change /veh HAMP (11756126_x_at) / RFU RNFT2 (11725882_a_at) / Fold change /veh RNFT2 (11725882_a_at) / RFU NR4A2 (11747474_a_at) / Fold change /veh NR4A2 (11747474_a_at) / RFU ABCC12 (11746883_a_at) / Fold change /veh ABCC12 (11746883_a_at) / RFU TMEM136 (11760407_x_at) / Fold change /veh TMEM136 (11760407_x_at) / RFU CLDN22 /// WWC2 (11732394_at) / Fold change /veh CLDN22 /// WWC2 (11732394_at) / RFU HLA-DPB1 (11760878_x_at) / Fold change /veh HLA-DPB1 (11760878_x_at) / RFU SPINT1 (11716480_a_at) / Fold change /veh SPINT1 (11716480_a_at) / RFU GAP43 (11754022_s_at) / Fold change /veh GAP43 (11754022_s_at) / RFU A4GNT (11735810_at) / Fold change /veh A4GNT (11735810_at) / RFU PRB3 (11715151_x_at) / Fold change /veh PRB3 (11715151_x_at) / RFU TUBB4B (11761932_at) / Fold change /veh TUBB4B (11761932_at) / RFU CAPN14 (11732068_a_at) / Fold change /veh CAPN14 (11732068_a_at) / RFU TMCC2 (11721928_a_at) / Fold change /veh TMCC2 (11721928_a_at) / RFU IRGQ (11745062_a_at) / Fold change /veh IRGQ (11745062_a_at) / RFU FAM174B (11720279_a_at) / Fold change /veh FAM174B (11720279_a_at) / RFU TMPRSS4 (11748680_a_at) / Fold change /veh TMPRSS4 (11748680_a_at) / RFU FAM212B (11763350_a_at) / Fold change /veh FAM212B (11763350_a_at) / RFU PLEKHG5 (11743358_a_at) / Fold change /veh PLEKHG5 (11743358_a_at) / RFU ZSCAN30 (11745921_a_at) / Fold change /veh ZSCAN30 (11745921_a_at) / RFU CMKLR1 (11741424_a_at) / Fold change /veh CMKLR1 (11741424_a_at) / RFU LOC101060620 /// MAPK8IP1 (11723275_at) / Fold change /veh LOC101060620 /// MAPK8IP1 (11723275_at) / RFU SPTSSB (11747773_x_at) / Fold change /veh SPTSSB (11747773_x_at) / RFU PRSS12 (11739890_at) / Fold change /veh PRSS12 (11739890_at) / RFU BIN1 (11741810_x_at) / Fold change /veh BIN1 (11741810_x_at) / RFU WNT11 (11732464_a_at) / Fold change /veh WNT11 (11732464_a_at) / RFU C10orf10 (11716521_a_at) / Fold change /veh C10orf10 (11716521_a_at) / RFU C5orf56 (11738089_at) / Fold change /veh C5orf56 (11738089_at) / RFU CYB561 (11721691_x_at) / Fold change /veh CYB561 (11721691_x_at) / RFU ANKRD19P (11752326_a_at) / Fold change /veh ANKRD19P (11752326_a_at) / RFU OR2T12 /// OR2T33 /// OR2T8 (11738714_s_at) / Fold change /veh OR2T12 /// OR2T33 /// OR2T8 (11738714_s_at) / RFU VCAN (11748164_a_at) / Fold change /veh VCAN (11748164_a_at) / RFU JSRP1 (11732532_at) / Fold change /veh JSRP1 (11732532_at) / RFU KRTAP10-11 (11738290_x_at) / Fold change /veh KRTAP10-11 (11738290_x_at) / RFU MYO3A (11730013_a_at) / Fold change /veh MYO3A (11730013_a_at) / RFU EBF3 (11725865_a_at) / Fold change /veh EBF3 (11725865_a_at) / RFU CAMK2N1 (11719241_x_at) / Fold change /veh CAMK2N1 (11719241_x_at) / RFU C5orf56 (11738088_a_at) / Fold change /veh C5orf56 (11738088_a_at) / RFU OLFML3 (11715873_a_at) / Fold change /veh OLFML3 (11715873_a_at) / RFU LOC100653217 /// NTM (11731650_a_at) / Fold change /veh LOC100653217 /// NTM (11731650_a_at) / RFU MAPK11 (11762145_a_at) / Fold change /veh MAPK11 (11762145_a_at) / RFU FIZ1 (11724087_x_at) / Fold change /veh FIZ1 (11724087_x_at) / RFU OASL (11726364_x_at) / Fold change /veh OASL (11726364_x_at) / RFU SOX15 (11748057_x_at) / Fold change /veh SOX15 (11748057_x_at) / RFU CD79A (11719716_a_at) / Fold change /veh CD79A (11719716_a_at) / RFU HIST1H1D (11736915_at) / Fold change /veh HIST1H1D (11736915_at) / RFU CASKIN2 (11723855_a_at) / Fold change /veh CASKIN2 (11723855_a_at) / RFU LOC730098 (11760151_x_at) / Fold change /veh LOC730098 (11760151_x_at) / RFU OR4N2 (11742367_at) / Fold change /veh OR4N2 (11742367_at) / RFU PRRT2 (11749266_a_at) / Fold change /veh PRRT2 (11749266_a_at) / RFU SNX32 (11753110_a_at) / Fold change /veh SNX32 (11753110_a_at) / RFU CDHR5 (11726645_a_at) / Fold change /veh CDHR5 (11726645_a_at) / RFU RCAN1 (11760418_a_at) / Fold change /veh RCAN1 (11760418_a_at) / RFU FAM167A (11723789_a_at) / Fold change /veh FAM167A (11723789_a_at) / RFU FAM26E (11764081_at) / Fold change /veh FAM26E (11764081_at) / RFU ISYNA1 (11749810_s_at) / Fold change /veh ISYNA1 (11749810_s_at) / RFU ACY1 (11761880_at) / Fold change /veh ACY1 (11761880_at) / RFU 11764098_at / Fold change /veh 11764098_at / RFU SAMD14 (11745864_x_at) / Fold change /veh SAMD14 (11745864_x_at) / RFU NPB (11741838_a_at) / Fold change /veh NPB (11741838_a_at) / RFU TMPRSS6 (11731388_a_at) / Fold change /veh TMPRSS6 (11731388_a_at) / RFU KRTAP10-2 (11738614_at) / Fold change /veh KRTAP10-2 (11738614_at) / RFU ARHGAP8 /// PRR5-ARHGAP8 (11727945_x_at) / Fold change /veh ARHGAP8 /// PRR5-ARHGAP8 (11727945_x_at) / RFU KRTAP5-7 /// NADSYN1 (11734609_at) / Fold change /veh KRTAP5-7 /// NADSYN1 (11734609_at) / RFU RASL12 (11751679_a_at) / Fold change /veh RASL12 (11751679_a_at) / RFU CDKN2B (11736163_a_at) / Fold change /veh CDKN2B (11736163_a_at) / RFU PRF1 (11729649_at) / Fold change /veh PRF1 (11729649_at) / RFU, ZNF638 /// ZNF638-IT1 / Fold change vs veh, ZNF638 /// ZNF638-IT1 / RFU, PANK3 / Fold change vs veh, PANK3 / RFU, SH3YL1 / Fold change vs veh, SH3YL1 / RFU, ZEB2 / Fold change vs veh, ZEB2 / RFU, NRIP1 / Fold change vs veh, NRIP1 / RFU, PTTG1IP / Fold change vs veh, PTTG1IP / RFU, CAPN2 / Fold change vs veh, CAPN2 / RFU, MED14 / Fold change vs veh, MED14 / RFU, SNORA58 / Fold change vs veh, SNORA58 / RFU, C1orf63 / Fold change vs veh, C1orf63 / RFU, LRRFIP1 / Fold change vs veh, LRRFIP1 / RFU, NDUFAF7 / Fold change vs veh, NDUFAF7 / RFU, SLC12A2 / Fold change vs veh, SLC12A2 / RFU, IBTK / Fold change vs veh, IBTK / RFU, ESF1 / Fold change vs veh, ESF1 / Fold change vs veh, TMEM50B / RFU, TAOK1 / Fold change vs veh, TAOK1 / RFU, ACBD3 / Fold change vs veh, ACBD3 / RFU, TMA16 / Fold change vs veh, TMA16 / RFU, RWDD3 / Fold change vs veh, RWDD3 / RFU, BCAT1 / Fold change vs veh, BCAT1 / RFU, EDEM3 / Fold change vs veh, EDEM3 / RFU, TMEM33 / Fold change vs veh, TMEM33 / RFU, WDR75 / Fold change vs veh, WDR75 / RFU, AHCTF1 / Fold change vs veh, AHCTF1 / RFU, TFRC / Fold change vs veh, TFRC / RFU, ZDHHC17 / Fold change vs veh, ZDHHC17 / RFU, NOM1 / Fold change vs veh, NOM1 / RFU, ARL8B / Fold change vs veh, ARL8B / RFU, ZBTB11 / Fold change vs veh, ZBTB11 / RFU, TAMM41 / Fold change vs veh, TAMM41 / RFU, KIAA1704 /// LOC100996395 / Fold change vs veh, KIAA1704 /// LOC100996395 / RFU, ING1 / Fold change vs veh, ING1 / RFU, TRMT61B / Fold change vs veh, TRMT61B / RFU, FUBP3 / Fold change vs veh, FUBP3 / RFU, TP53 / Fold change vs veh, TP53 / RFU, TNKS2 / Fold change vs veh, TNKS2 / RFU, ZFP14 / Fold change vs veh, ZFP14 / RFU, ACTR2 / Fold change vs veh, ACTR2 / RFU, PPP3R1 / Fold change vs veh, PPP3R1 / RFU, PIK3R1 / Fold change vs veh, PIK3R1 / RFU, HNRNPA1 / Fold change vs veh, HNRNPA1 / RFU, RNF170 / Fold change vs veh, RNF170 / RFU, ZNF28 / Fold change vs veh, ZNF28 / RFU, RNGTT / Fold change vs veh, RNGTT / RFU, OGT / Fold change vs veh, OGT / RFU, BRD1 / Fold change vs veh, BRD1 / RFU, MARS / Fold change vs veh, MARS / RFU, ZNF655 / Fold change vs veh, ZNF655 / RFU, FAHD1 / Fold change vs veh, FAHD1 / RFU, BDP1 / Fold change vs veh, BDP1 / RFU, LRRCC1 / Fold change vs veh, LRRCC1 / RFU, ARID1A / Fold change vs veh, ARID1A / RFU, ZNF146 / Fold change vs veh, ZNF146 / RFU, ZNF330 / Fold change vs veh, ZNF330 / RFU, GPN3 / Fold change vs veh, GPN3 / RFU, C9orf123 / Fold change vs veh, C9orf123 / RFU, N4BP2L2 / Fold change vs veh, N4BP2L2 / RFU, ARFIP1 / Fold change vs veh, ARFIP1 / RFU, FAM179B / Fold change vs veh, FAM179B / RFU, BCL10 / Fold change vs veh, BCL10 / RFU, UHRF1BP1L / Fold change vs veh, UHRF1BP1L / RFU, BET1 / Fold change vs veh, BET1 / RFU, CNOT2 / Fold change vs veh, CNOT2 / RFU, ZNF268 / Fold change vs veh, ZNF268 / Fold change vs veh, ZNF507 / RFU, DGCR2 / Fold change vs veh, DGCR2 / RFU, WDSUB1 / Fold change vs veh, WDSUB1 / Fold change vs veh, HSP90B1 /// MIR3652 / RFU, ADSS / Fold change vs veh, ADSS / RFU, GK / Fold change vs veh, GK / RFU, ZNF148 / Fold change vs veh, ZNF148 / RFU, TAF9 / Fold change vs veh, TAF9 / RFU, SLC1A5 / Fold change vs veh, SLC1A5 / RFU, SLMO2 / Fold change vs veh, SLMO2 / RFU, ABCC4 / Fold change vs veh, ABCC4 / RFU, LOC101060439 /// RAP1B / Fold change vs veh, LOC101060439 /// RAP1B / RFU, RFX7 / Fold change vs veh, RFX7 / RFU, GTPBP10 / Fold change vs veh, GTPBP10 / RFU, CNEP1R1 / Fold change vs veh, CNEP1R1 / RFU, BIVM-ERCC5 /// ERCC5 / Fold change vs veh, BIVM-ERCC5 /// ERCC5 / RFU, ILF3 / Fold change vs veh, ILF3 / RFU 11762660_at / Fold change /veh 11762660_at / RFU VCAN (11757783_s_at) / Fold change /veh VCAN (11757783_s_at) / RFU DDX43 (11728927_at) / Fold change /veh DDX43 (11728927_at) / RFU KRT8 (11758188_x_at) / Fold change /veh KRT8 (11758188_x_at) / RFU NKD1 (11759106_at) / Fold change /veh NKD1 (11759106_at) / RFU SRD5A1 (11742802_a_at) / Fold change /veh SRD5A1 (11742802_a_at) / RFU TPSAB1 /// TPSB2 (11721975_s_at) / Fold change /veh TPSAB1 /// TPSB2 (11721975_s_at) / RFU GSTM3 (11746129_a_at) / Fold change /veh GSTM3 (11746129_a_at) / RFU IL23R (11737362_x_at) / Fold change /veh IL23R (11737362_x_at) / RFU TMEM51 (11727254_a_at) / Fold change /veh TMEM51 (11727254_a_at) / RFU PIWIL2 (11732686_x_at) / Fold change /veh PIWIL2 (11732686_x_at) / RFU ORM1 (11744905_x_at) / Fold change /veh ORM1 (11744905_x_at) / RFU CCDC152 (11743942_at) / Fold change /veh CCDC152 (11743942_at) / RFU ECM1 (11717891_a_at) / Fold change /veh ECM1 (11717891_a_at) / RFU IL23R (11748794_a_at) / Fold change /veh IL23R (11748794_a_at) / RFU TNFAIP8L3 (11732012_x_at) / Fold change /veh TNFAIP8L3 (11732012_x_at) / RFU MBOAT4 (11741988_at) / Fold change /veh MBOAT4 (11741988_at) / RFU 11764193_at / Fold change /veh 11764193_at / RFU TMEM53 (11763286_at) / Fold change /veh TMEM53 (11763286_at) / RFU MAGEB2 (11727129_at) / Fold change /veh MAGEB2 (11727129_at) / RFU TMEM200A (11744735_a_at) / Fold change /veh TMEM200A (11744735_a_at) / RFU CCDC152 (11751479_a_at) / Fold change /veh CCDC152 (11751479_a_at) / RFU FAM211A (11726209_a_at) / Fold change /veh FAM211A (11726209_a_at) / RFU RGS16 (11746705_a_at) / Fold change /veh RGS16 (11746705_a_at) / RFU VCAN (11755009_s_at) / Fold change /veh VCAN (11755009_s_at) / RFU RHOB (11743442_s_at) / Fold change /veh RHOB (11743442_s_at) / RFU RGS16 (11720943_a_at) / Fold change /veh RGS16 (11720943_a_at) / RFU RGS16 (11720944_at) / Fold change /veh RGS16 (11720944_at) / RFU, VPS4B / Fold change vs veh, VPS4B / RFU, CREB1 / Fold change vs veh, CREB1 / RFU, DNAJC13 / Fold change vs veh, DNAJC13 / RFU, GNAQ / Fold change vs veh, GNAQ / RFU, CDK5R1 / Fold change vs veh, CDK5R1 / RFU, ZRANB3 / Fold change vs veh, ZRANB3 / RFU, CUL4A / Fold change vs veh, CUL4A / RFU, CCNY / Fold change vs veh, CCNY / RFU, UFL1 / Fold change vs veh, UFL1 / RFU, COG3 / Fold change vs veh, COG3 / RFU, DIAPH2 / Fold change vs veh, DIAPH2 / RFU, SKA2 / Fold change vs veh, SKA2 / RFU, AFF3 / Fold change vs veh, AFF3 / RFU, LMF1 / Fold change vs veh, LMF1 / RFU, IPO11 / Fold change vs veh, IPO11 / RFU, DFFB / Fold change vs veh, DFFB / RFU, FOXP1 / Fold change vs veh, FOXP1 / RFU, CARD8 / Fold change vs veh, CARD8 / RFU, STRN3 / Fold change vs veh, STRN3 / RFU, ADK / Fold change vs veh, ADK / RFU, RASSF2 / Fold change vs veh, RASSF2 / RFU, WIPF1 / Fold change vs veh, WIPF1 / RFU, LARP1B / Fold change vs veh, LARP1B / RFU, RASA1 / Fold change vs veh, RASA1 / RFU, RB1 / Fold change vs veh, RB1 / RFU, PPFIA1 / Fold change vs veh, PPFIA1 / RFU, MAT2A / Fold change vs veh, MAT2A / RFU, CCT5 / Fold change vs veh, CCT5 / RFU, WDR92 / Fold change vs veh, WDR92 / RFU, CUX1 / Fold change vs veh, CUX1 / RFU, TTC7A / Fold change vs veh, TTC7A / RFU, TMEM135 / Fold change vs veh, TMEM135 / RFU, DEPTOR / Fold change vs veh, DEPTOR / RFU, CPM / Fold change vs veh, CPM / RFU, DNAJB6 / Fold change vs veh, DNAJB6 / RFU, CACNA2D3 / Fold change vs veh, CACNA2D3 / RFU, DTX4 / Fold change vs veh, DTX4 / RFU, TFCP2 / Fold change vs veh, TFCP2 / RFU, GMCL1 /// GMCL1P1 / Fold change vs veh, GMCL1 /// GMCL1P1 / RFU, AEBP2 / Fold change vs veh, AEBP2 / RFU, SNHG1 /// SNORD22 /// SNORD25 /// SNORD26 /// SNORD27 /// SNORD28 /// SNORD29 /// SNORD31 / Fold change vs veh, SNHG1 /// SNORD22 /// SNORD25 /// SNORD26 /// SNORD27 /// SNORD28 /// SNORD29 /// SNORD31 / Fold change (Aza/veh), C12orf56 (ProbeSet 11735607_a_at) / Fold change (ACY-1035/veh), C12orf56 (ProbeSet 11735607_a_at) / Fold change (Aza/veh), FGFR1OP (ProbeSet 11751329_s_at) / Fold change (ACY-1035/veh), FGFR1OP (ProbeSet 11751329_s_at) / Fold change (Aza/veh), VPS36 (ProbeSet 11739960_a_at) / Fold change (ACY-1035/veh), VPS36 (ProbeSet 11739960_a_at) / RFU SYPL1 (11715823_x_at) / Fold change /veh SYPL1 (11715823_x_at) / RFU IGFBP7 (11715501_s_at) / Fold change /veh IGFBP7 (11715501_s_at) / RFU REEP3 (11722064_at) / Fold change /veh REEP3 (11722064_at) / RFU IGLL1 (11728026_x_at) / Fold change /veh IGLL1 (11728026_x_at): dose or concentration left out as unconfirmed
Conditions: MV-4-11 cells, 48 hours

SMILES: Nc1ccc(-c2cccs2)cc1NC(=O)c1ccc2c(c1)cc(C1CC1)n2CCN1CCOCC1 [ACY-1035]
- RFU OLFML3 (11715873_a_at): 13.14 RFU
